Test results taken from US9481648B2, “Kinase inhibitors” (Respivert Limited, priority 2013, dated 2016).
pIC50: −log10 of the molar value. Where two headings read alike, the source gives them in different places.

Columns and labels:
[1] = molecular target: p38 MAPKα (MAPK14) (Homo sapiens (Human), UniProt Q16539); test: p38 MAPKα enzyme inhibition (FRET, Z-LYTE; Method 2); format: biochemical
[2] = molecular target: c-Src (Homo sapiens (Human), UniProt P12931); test: c-Src enzyme inhibition (FRET, Z-LYTE); format: biochemical
c-Src, sequence (P12931 whole entry, looked up): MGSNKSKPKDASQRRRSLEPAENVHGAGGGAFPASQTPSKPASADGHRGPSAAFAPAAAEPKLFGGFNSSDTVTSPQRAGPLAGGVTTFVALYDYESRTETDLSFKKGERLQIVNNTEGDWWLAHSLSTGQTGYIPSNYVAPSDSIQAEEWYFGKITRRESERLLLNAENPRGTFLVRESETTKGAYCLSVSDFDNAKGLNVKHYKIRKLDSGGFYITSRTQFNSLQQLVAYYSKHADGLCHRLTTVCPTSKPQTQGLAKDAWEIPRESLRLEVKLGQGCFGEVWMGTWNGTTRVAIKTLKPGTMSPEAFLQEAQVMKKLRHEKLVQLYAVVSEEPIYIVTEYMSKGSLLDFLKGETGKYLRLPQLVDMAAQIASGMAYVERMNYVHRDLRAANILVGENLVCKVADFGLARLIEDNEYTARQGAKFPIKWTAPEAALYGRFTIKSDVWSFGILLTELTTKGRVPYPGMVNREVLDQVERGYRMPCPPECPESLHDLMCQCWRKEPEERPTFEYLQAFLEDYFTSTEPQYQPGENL
Procedure, shortened: (§1)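 Syk or c-Src enzyme (3000 or 2000 ng/mL solutions) was preincubated 2 h at RT with compound solutions at 1, 0.1, 0.01 or 0.001 µg/mL. Z-LYTE FRET peptide (8 µM solution) and ATP (800 µM solution for c-Src, 60 µM for Syk) were then added for 1 h, followed by protease development for 1 h. Phosphorylation was read as the coumarin/fluorescein emission ratio.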

[3] = molecular target: Syk (Homo sapiens (Human), UniProt P43405); test: Syk enzyme inhibition (FRET, Z-LYTE); format: biochemical
Procedure, shortened: as §1

[4] = molecular target: GSK 3α (Homo sapiens (Human), UniProt P49840); test: GSK 3α enzyme inhibition (FRET, Z-LYTE; Method 2); format: biochemical; details: read-out: IC50 Values for Enzyme Inhibition GSK3α
GSK 3α, sequence (P49840 whole entry): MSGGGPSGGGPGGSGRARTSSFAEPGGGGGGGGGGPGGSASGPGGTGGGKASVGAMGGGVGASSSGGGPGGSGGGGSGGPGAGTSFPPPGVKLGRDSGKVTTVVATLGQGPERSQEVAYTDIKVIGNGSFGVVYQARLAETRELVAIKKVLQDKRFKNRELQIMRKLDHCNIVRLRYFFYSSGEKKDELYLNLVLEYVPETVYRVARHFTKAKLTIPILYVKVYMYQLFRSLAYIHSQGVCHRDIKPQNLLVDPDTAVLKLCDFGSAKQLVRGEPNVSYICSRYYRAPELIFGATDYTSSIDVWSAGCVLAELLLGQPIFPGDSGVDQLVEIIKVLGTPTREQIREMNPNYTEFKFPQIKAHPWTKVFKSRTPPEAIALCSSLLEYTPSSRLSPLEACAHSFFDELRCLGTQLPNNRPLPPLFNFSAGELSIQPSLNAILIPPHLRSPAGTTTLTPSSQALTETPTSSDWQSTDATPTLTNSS
Procedure, shortened: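 Z-LYTE FRET assay: GSK3-α (500 ng/mL stock) preincubated 105 min at RT with compound at 10, 1, 0.1 or 0.01 μg/mL stock. FRET peptide (8 μM stock) and ATP (40 μM stock) were then added for 1 h, followed by protease development for 1 h. Phosphorylation was read as coumarin/fluorescein emission ratio.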

[5] = system: β-catenin in d-U937 cells; test: Accumulation of β catenin in d-U937 cells (assay m); format: cell-based, human
Procedure, shortened: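 U937 cells were differentiated with PMA (100 ng/mL) for 48–72 hr, then treated with compound or vehicle for 18 hr. After formaldehyde fixation, β-catenin was detected with a primary antibody and an HRP secondary using TMB (OD450–655). Signal was normalised to crystal violet cell staining (OD595).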

[6] = system: TNBS-induced colitis in BDF1 mice; test: TNBS-induced colitis in mice (in vivo iv); design: species or system mouse
Experimental: Non-fasted, 10-12 week old, male BDF1 mice are dosed by oral gavage twice daily with either vehicle (5 mL/kg), reference item (Budesonide 2.5 mg/kg) or test compound (1 or 5 mg/kg) one day before (Day −1) stimulation of the inflammatory response by treatment with 2,4,6-trinitrobenzenesulphonic acid (TNBS) (15 mg/mL in 50% ethanol/50% saline). On Day 0 of the study TNBS (200 μL) is administered intra-colonically via a plastic catheter with BID dosing of the vehicle, reference or test compound continuing for 2 or 4 days. During the study, animals are weighed every day and stool observations are made and recorded as a score, based on stool consistency. At the time of sacrifice on Day 2 (or Day 4), the large intestine is removed and the length and weight recorded. Sections of the colon are taken for histopathology scoring to determine disease severity.

[7] = system: endotoxin (LPS)-induced uveitis in Lewis rats; test: Endotoxin-induced uveitis in rats (in vivo vi); design: species or system rat; details: for Cell counts / IL-1β Anterior tissue / IL-1β Posterior tissue: Table 7c; for cytokine levels in both the anterior and posterior segments of the eyes: rats treated with intravitreal endotoxin LPS, topical dosing
Experimental: Male, Lewis rats (6-8 weeks old, Charles River UK Limited) are housed in cages of 3 at 19-21° C. with a 12 h light/dark cycle (07:00/19:00) and fed a standard diet of rodent chow and water ad libitum. Non-fasted rats are weighed, individually identified on the tail with a permanent marker, and receive a single intravitreal administration into the right vitreous humor (5 μL dose volume) of 100 ng/animal of LPS (Escherichia coli 0111:B4 prepared in PBS, Sigma Aldrich, UK) using a 32-gauge needle. Untreated rats are injected with PBS. […] Following euthanasia, the right eye of each animal is enucleated and dissected into front (anterior) and back (posterior) sections around the lens. Each section is weighed and homogenised in 500 μL of sterile phosphate buffered saline followed by 20 minutes centrifugation at 12000 rpm at 4° C.

[8] = Plasma pharmacokinetics in rats, single intravenous or oral administration; format: in vivo, rat (male Wistar); details: rats
Experimental: Studies were conducted by Sai Life Sciences (Hinjewadi, Pune, India) to investigate the plasma pharmacokinetics and total colon tissue distribution of compounds of the invention. In particular, pharmacokinetic studies were carried out in: • male C57BL/6 mice, following a single oral administration; and • male Wistar rats following a single intravenous or oral administration.

[9] = system: non-mutant kinases; format: binding; details: for number of individual kinase hits, S(1): non-mutant kinases with % Ctrl <1
Experimental: These assays may be conducted by DiscoverX (formerly Ambit; San Diego, Calif.). The percentage inhibition produced by incubation with a test compound may be calculated relative to the non-inhibited control.

[10] = 5 mg/kg orally, TNBS-induced colitis, mice, 2 days
[11] = TNBS-induced colitis in mice, 5 mg/kg oral
[12] = eyes of LPS-stimulated rats, 1 mg/mL
[13] = male, Wistar, rat, plasma, intravenous 0.25 mg/kg
[14] = Table 7a, eyes of LPS-stimulated rats, 1 mg/mL

p38 MAPKα (MAPK14), sequence (Q16539 whole entry): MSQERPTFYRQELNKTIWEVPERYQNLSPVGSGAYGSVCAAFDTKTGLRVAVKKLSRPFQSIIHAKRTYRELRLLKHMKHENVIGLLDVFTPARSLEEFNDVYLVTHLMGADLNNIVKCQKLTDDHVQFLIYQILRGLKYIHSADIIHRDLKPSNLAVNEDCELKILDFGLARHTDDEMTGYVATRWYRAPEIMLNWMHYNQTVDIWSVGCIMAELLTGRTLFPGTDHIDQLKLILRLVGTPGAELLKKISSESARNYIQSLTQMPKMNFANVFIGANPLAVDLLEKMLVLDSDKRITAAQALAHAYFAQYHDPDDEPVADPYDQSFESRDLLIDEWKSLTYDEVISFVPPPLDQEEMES

Row | Structure (SMILES) | pIC50 [1] | pIC50 [2] | pIC50 [3] | pIC50 [4] | % β-catenin induction ([5]; test compound 1 μg/mL) [%] | % β-catenin induction ([5]; test compound 5 μg/mL) [%] | % β-catenin induction ([5]; test compound 10 μg/mL) [%] | further results
1 | CNC(=O)c1cc(C(C)(C)C)cc(NC(=O)Nc2ccc(Oc3ccnc(Nc4cc(OC)cc(OCCOCCOCCOC)c4)c3)c3ccccc23)c1OC [Example 29, 5-(tert-Butyl)-2-methoxy-3-(3-(4-((2-((3-methoxy-5-(2-(2-(2-methoxyethoxy)ethoxy)-ethoxy)phenyl)amino)pyridin-4-yl)oxy)naphthalen-1-yl)ureido)-N-methylbenzamide] | 7.59 | 7.72 | 7.02 | 5.20 | 4 | 7 | −4 | Cell counts [7, 12]: 33.0 ± 6.7; IL-1β Anterior tissue [7, 12]: 441.3 ± 138.5 pg/mL; IL-1β Posterior tissue [7, 12]: 272.1 ± 93.8 pg/mL; cytokine levels in both the anterior and posterior segments of the eyes [7]: significantly reduced; AUC(0-inf) [8, 13]: 295 ng·h/mL; AUC(0-t) [8, 13]: 293 ng·h/mL; half-life [8, 13]: 42 min; C0 ([8]; male, Wistar, rat, plasma, intravenous 0.25 mg/kg in 5% DMSO-7.5% Solutol HS15-87.5% normal saline): 2500 ng/mL; Vd ([8]; male, Wistar, rat, plasma, intravenous 0.25 mg/kg, read-out: Vss): 0.3 L/kg; CI ([8]; intravenous 0.25 mg/kg): 14.2 mL/min/kg
2 | C[C@@H]1C[C@H]2[C@@H]3CCC4=CC(=O)C=C[C@]4(C)[C@@]3(F)[C@@H](O)C[C@]2(C)[C@@]1(O)C(=O)CO [Dexamethasone] |  |  |  |  |  |  |  | IL-1β Anterior [7, 14]: 553.5 ± 155.7 pg/mL; IL-1β Posterior [7, 14]: 365.6 ± 178.2 pg/mL; IL-6 Anterior [7, 14]: 1000.7 ± 126.2 pg/mL; IL-6 Posterior [7, 14]: 1723.4 ± 224.1 pg/mL; MCP-1 Anterior [7, 14]: 156.3 ± 50.8 pg/mL; MCP-1 Posterior [7, 14]: 95.2 ± 32.5 pg/mL
3 | COCC(=O)Nc1cc(Oc2ccc(NC(=O)Nc3cc(C(C)(C)C)nn3-c3ccc(C)cc3)c3ccccc23)ccn1 [Reference Compound, N-(4-(4-(3-(3-tert-butyl-1-p-tolyl-1H-pyrazol-5-yl)ureido)naphthalen-1-yloxy)pyridin-2-yl)-2-methoxyacetamide, reference compound] |  |  |  |  |  |  |  | number of individual kinase hits, S(1) ([9]; 50 nM): 7; number of individual kinase hits, S(10) ([9]; 50 nM, non-mutant kinases with % Ctrl <10): 32; number of individual kinase hits, S(35) ([9]; 50 nM, non-mutant kinases with % Ctrl <35): 67; number of individual kinase hits, S(1) ([9]; 500 nM): 45
4 | C#Cc1cc(Nc2cc(Oc3ccc(NC(=O)Nc4cc(C(C)(C)C)cc(C(N)=O)c4OC)c4ccccc34)ccn2)cc(C(=O)NCCOCCOCCOC)c1 [Example 53, 3-((4-((4-(3-(5-(tert-Butyl)-3-carbamoyl-2-methoxyphenyl)ureido)naphthalen-1-yl)oxy)pyridin-2-yl)amino)-5-ethynyl-N-(2-(2-(2-methoxyethoxy)ethoxy)ethyl)benzamide] | 6.88 | 7.34 | 5.90 | 5.06 | −1 | 1 | 2 | 

Further lines, with some results ahead:

Row | pIC50 [1] | pIC50 [2] | pIC50 [3] | pIC50 [4] | Structure (SMILES) | % β-catenin induction ([5]; test compound 1 μg/mL) [%] | % β-catenin induction ([5]; test compound 5 μg/mL) [%] | % β-catenin induction ([5]; test compound 10 μg/mL) [%] | further results
5 | 7.60 | 7.72 | 7.07 | 5.03 | COCCOCCOCCOc1cc(Nc2cc(Oc3ccc(NC(=O)Nc4cc(C(C)(C)C)cc(C(N)=O)c4OC)c4ccccc34)ccn2)cc(OC)c1 [Example 34, 5-(tert-Butyl)-2-methoxy-3-(3-(4-((2-((3-methoxy-5-(2-(2-(2-methoxyethoxy)ethoxy)ethoxy)phenyl)amino)pyridin-4-yl)oxy)naphthalen-1-yl)ureido)benzamide] | 1 | 7 | −9 | inflammatory cell infiltrate in the reticular and laminar propria zones [6, 10]: marked reduction; ulcer grade and epithelial repair compared to the vehicle control [6, 10]: marked improvements; LP inflammation [6, 11]: 2.6 ± 0.3; Ulcer grade [6, 11]: 3.6 ± 0.2; activity in in vivo model of colonic inflammation (histopathology analysis) ([6]; TNBS-induced colitis, mice, conducted over 2 days): substantial activity
6 | 6.85 | 7.64 | 6.48 | 5.61 | COc1cc(Nc2cc(Oc3ccc(NC(=O)Nc4cc(C(C)(C)C)cc(NS(C)(=O)=O)c4OC)c4ccccc34)ccn2)cc(C(=O)NCCCN2CCOCC2)c1 [Example 66, 3-((4-((4-(3-(5-(tert-Butyl)-2-methoxy-3-(methysulfonamido)phenyl)ureido)naphthalen-1-yl)oxy)pyridin-2-yl)amino)-5-methoxy-N-(3-morpholinopropyl)benzamide] | 0 | 6 | 3 | Cell counts [7, 12]: 28.0 ± 7.6; IL-1β Anterior tissue [7, 12]: 342.7 ± 145.3 pg/mL; IL-1β Posterior tissue [7, 12]: 209.9 ± 59.0 pg/mL; cytokine levels in both the anterior and posterior segments of the eyes [7]: significantly reduced
7 | 6.47 | 7.35 | 6.20 | 6.12 | C#Cc1cc(Nc2nccc(Oc3ccc(NC(=O)Nc4cc(C(C)(C)C)cc(NS(C)(=O)=O)c4OC)c4ccccc34)n2)cc(C(=O)N[C@H](C)CN2CCOCC2)c1 [Example 56, (R)-3-((4-((4-(3-(5-(tert-Butyl)-2-methoxy-3-(methysulfonamido)phenyl)ureido)-naphthalen-1-yl)oxy)pyrimidin-2-yl)amino)-5-ethynyl-N-(1-morpholinopropan-2-yl)-benzamide] | 3 | 13 | 14 | 
8 | 7.10 | 7.68 | 6.89 | 5.78 | CNC(=O)c1cc(C(C)(C)C)cc(NC(=O)Nc2ccc(Oc3ccnc(Nc4cc(CO)cc(OC)c4)c3)c3ccccc23)c1OC [84(h), 5-tert-Butyl-3-[[4-[[2-[3-(hydroxymethyl)-5-methoxyanilino]-4-pyridyl]oxy]-1-naphthyl]carbamoylamino]-2-methoxy-N-methyl-benzamide] | −1 | 11 | 10 | 
9 | 6.68 | 7.15 | 5.93 | 4.93 | C#Cc1cc(Nc2cc(Oc3ccc(NC(=O)Nc4cc(C(C)(C)C)cc(NS(C)(=O)=O)c4OC)c4ccccc34)ccn2)cc(C(=O)N[C@H](C)COCCOCCOC)c1 [Example 68, (R)-3-((4-((4-(3-(5-(tert-Butyl)-2-methoxy-3-(methylsulfonamido)phenyl)ureido)-naphthalen-1-yl)oxy)pyridin-2-yl)amino)-5-ethynyl-N-(1-(2-(2-methoxyethoxy)ethoxy)-propan-2-yl)benzamide] | 2 | 2 | −1 | 
10 | 6.76 | 7.24 | 6.92 | 5.31 | COc1cccc(Nc2cc(Oc3ccc(NC(=O)Nc4cc(C(C)(C)C)cc(C(=O)NC5COC5)c4OC)c4ccccc34)ccn2)c1 [Example 81, 5-(tert-Butyl)-2-methoxy-3-(3-(4-((2-((3-methoxyphenyl)amino)pyridin-4-yl)oxy)naphthalen-1-yl)ureido)-N-(oxetan-3-yl)benzamide] | 4 | 14 | 13 | 
